Laboratory results: patent US10682371B2, “Small molecule conjugates specifically activated in tumor microenvironment for targeting and use thereof” (priority 2014, dated 2020)

Key:
[1] = tested on: Human breast cancer MDA-MB435; assay: Multiple tumor models in nude mice: MDA-MB435; assay type: in vivo
Description: (§1) 1) Corresponding tumor cells were purchased from American type culture collection (ATCC) and identified according the specification provided by ATCC. Cells were cultivated in DMEM culture solution containing 10% fetal bovine serum at 37° C. and 5% CO2. The cells were passaged for every three days and cells within the 15th passage were used.
(§2) 2) Production of tumor. 5×10^6 corresponding cells were subcutaneously injected to the back of the nude mice. Mice were randomly grouped after the tumor reached at least 100 mm^3. Then treatment began and the day on which the treatment began was day 1.
(§3) 3) Course of treatment. […] The control group was administered by physiological saline. Animals were administered once weekly for three weeks.
(§4) 3) Course of treatment. According to the clinical application of A1, A1 was administered in a dose of ⅙ MTD, i.v., 17.6 μmol/kg. The control group was administered by physiological saline. Animals were administered once weekly for three weeks.
(§5) 3) Course of treatment. According to the clinical application of B1, B1 was administered in a dose of ⅙ MTD, i.v., 17.6 μmol/kg. The control group was administered by physiological saline. Animals were administered once weekly for three weeks.
as §3, §3

[2] = tested on: Human ovarian cancer SK-OV-3; assay: Multiple tumor models in nude mice: SK-OV-3; assay type: in vivo
Description: as §1, §2, §3, §4, §5, §3, §3

[3] = tested on: Human chronic leukemia K562; assay: Multiple tumor models in nude mice: K562; assay type: in vivo
Description: as §1, §2, §3, §4, §5, §3, §3

[4] = tested on: Human liver cancer Hepg2; assay: Multiple tumor models in nude mice: Hepg2; assay type: in vivo
Description: as §1, §2, §3, §4, §5, §3, §3

[5] = tested on: Human renal cancer OS-RC-2; assay: Multiple tumor models in nude mice: OS-RC-2; assay type: in vivo
Description: as §1, §2, §3, §4, §5, §3, §3

[6] = tested on: HEK293 cells; assay type: cell-based; settings: for Cytoxicity reduced (Multiple): HEK293, 72 hours, MTT, IC50 of modified compound compared to its corresponding cytotoxic compound, approximate multiples
Description: Toxicity detection method: a standard universal test program was used to perform the in vitro cytotoxicity test. 2500 HEK293 cells were cultured in a 96-well plate, and allowed to grow overnight. Cytotoxic compounds and their corresponding conjugated compounds were added into each well in different concentrations, cultivated with the cells at 37° C. for 72 hours, and then treated with MTT reagents. OD changes were read. The approximate multiples of the toxicity change were obtained by comparing the IC50 of the modified compounds to their corresponding cytotoxic compounds.

[7] = tested on: Human breast cancer MDA-MB231 cells; assay type: in vivo, nude mice; settings: for Effect on tumor growth, in words: compared to control, camptothecin, capecitabine and daunorubicin groups
Description: 1) Human breast cancer MDA-MB231 cells were purchased from American type culture collection (ATCC) and identified according the specification provided by ATCC. Cells were cultivated in […] (DMEM culture medium) containing 10% fetal bovine serum at 37° C. and 5% CO2. The cells were passaged for every three days and cells within the 15th passage were used.
2) Production of tumor. 5×10^6 MDA-MB231 cells were subcutaneously injected to the back of the nude mice. Mice were randomly grouped after the tumor reached at least 100 mm^3. Then treatment began and the day on which the treatment began was day 1.
3) Course of treatment. […] The drugs were administered once weekly for four weeks.
When R1 is 2-(2-Methoxyethoxy)Acetyl, and R3 is Ala, activation study and efficacy study were carried out by using compounds having different cleavable linker. The study methods are identical to those in Examples 10, 11 and 12. The in vitro activation efficiency was tested by asparagine endopeptidase and the tumor inhibition rate was tested by using human breast cancer MDA-MB231 model. […]

[8] = tested on: Panc-1 cells; assay: Tumor treatment in nude mice, Panc-1 model (Example 60); assay type: in vivo; settings: Panc-1 in nude mice, IV once weekly for four weeks, E1-E4 15 mg/kg, mitomycin 2 mg/kg
Description: 1) Panc-1 cells were purchased from American type culture collection (ATCC) and identified according the specification provided by ATCC. Cells were cultivated in DMEM culture solution containing 10% fetal bovine serum at 37° C. and 5% CO2. The cells were passaged for every three days and cells within the 15th passage were used.
2) Production of tumor. 5×10^6Panc-1 cells were subcutaneously injected to the back of the nude mice. Mice were randomly grouped after the tumor reached at least 100 mm^3. Then treatment began and the day on which the treatment began was day 1.
(§6) […]. The control group was administered by physiological saline. Drugs were administered once weekly for four weeks.

[9] = tested on: HT1080 cells; assay: Tumor treatment in nude mice, HT1080 model (Example 61); assay type: in vivo; settings: HT1080 in nude mice, IV once weekly for four weeks, E1-E4 15 mg/kg, mitomycin 2 mg/kg
Description: 1) HT1080 cells were purchased from American type culture collection (ATCC) and identified according the specification provided by ATCC. Cells were cultivated in DMEM culture solution containing 10% fetal bovine serum at 37° C. and 5% CO2. The cells were passaged for every three days and cells within the 15th passage were used.
2) Production of tumor. 5×10^6 HT1080 cells were subcutaneously injected to the back of the nude mice. Mice were randomly grouped after the tumor reached at least 100 mm^3. Then treatment began and the day on which the treatment began was day 1.
as §6

[10] = tested on: scar and choroidal neovascularization (CNV); assay: Inhibition of scar and choroidal neovascularization (CNV) by eye drops after laser photocoagulation; assay type: in vivo, C57 mice; settings: 150 mW laser photocoagulation, eye drops daily, two weeks; C57 mice
Description: Animal: C57 mice of 16 weeks old, all female and 8 animals in each group.
(§7) Production and treatment of scar. […] Two weeks later, eye tissues were taken from 4 animals of each group for immunohistochemical (HE) staining. For another 4 animals, they were subjected to fixed irradiation through photocoagulation by 50 mW laser and then to treatment. 48 hours later, their eye tissues were taken, homogenated, filtered to isolate individual cells in the scar and choroidal neovascularization (CNV) tissues. The cells were washed by buffer twice and stained by biotin-conjugated anti-F4/80 (biotin-labeled precursor cell antigen from macrophage) and FITC-conjugated anti-CD45 (isothiocyanate fluorescein labeled leucocyte common antigen) at ambient temperature for 1 hour. Then the cells were washed by PBS containing 1% fetal bovine serum twice and then analyzed for the ratio of the macrophage precursor antigen positive cells in the leucocyte common antigen (CD45) positive cells by flow cytometry.

[11] = tested on: macrophage; assay: Macrophage precursor antigen (F4/80) positive cells in CD45 positive cells of scar/CNV tissue, flow cytometry; assay type: in vivo, C57 mice; settings: 50 mW laser, 48 hours after treatment
Description: as §7

[12] = Table 51, 25 mg/kg once weekly for three weeks
[13] = MDA-MB231, nude mice, IV 13.2 μmol/kg once weekly for four weeks, Day 10
[14] = MDA-MB231, nude mice, IV 13.2 μmol/kg once weekly for four weeks, Day 24
[15] = S1′ i.v. 17.6 μmol/kg once weekly for three weeks
[16] = Table 41, i.v. 17.6 μmol/kg once weekly for three weeks
[17] = Table 29, i.v. 17.6 μmol/kg once weekly for three weeks

COCCOCC(=O)N[C@H](C)C(=O)N[C@H](C)C(=O)N[C@H](CC(N)=O)C(=O)Nc1ccc(COC(=O)OC(C(=O)OC2C[C@@]3(O)[C@@H](OC(=O)c4ccccc4)[C@H]4[C@](C)(C(=O)[C@H](O)C(=C2C)C3(C)C)[C@@H](O)CC2OC[C@]24OC(C)=O)[C@@H](NC(=O)OC(C)(C)C)c2ccccc2)cc1 (stereo partly drawn) [Compound D1, 2-(2-methoxyethoxy) acetyl-L-Ala-L-Ala-L-Asn-4-amino benzyl-Docetaxel]
inhibitory rate on tumor (Day 26) [1, 12]: 93.5%
inhibitory rate on tumor (Day 26) [2, 12]: 82.9%
inhibitory rate on tumor (Day 26) [3, 12]: 84.6%
inhibitory rate on tumor (Day 26) [4, 12]: 75.7%
inhibitory rate on tumor (Day 26) [5, 12]: 87.7%

4-N—(N—(N—(N-(6-maleimido caproyl)-L-alanyl)-L-alanyl)-L-asparaginyl)-amino benzyl alcohol-MMAE-carbamate [Compound S6]
Cytoxicity reduced (Multiple) [6]: 35 Multiple
Cytoxicity reduced (Multiples) ([6]; different cleavable linkers of MMAE and Doxorubicin): 35 Multiples
Inhibitory rate on tumor (%) Day 10 [7, 13]: 23%
Size of tumor (mm^3) Day 10 [7, 13]: 235.5 ± 56.3 mm^3
Inhibitory rate on tumor (%) Day 24 [7, 14]: 45.3%
Effect on tumor growth, in words [7]: less efficacy
tumor inhibition rate (%) ([7]; human breast cancer MDA-MB231 model, different cleavable linkers): 45.4%

COc1cccc2c1C(=O)c1c(O)c3c(c(O)c1C2=O)C[C@@](O)(C(C)=O)C[C@@H]3O[C@H]1C[C@H](NC(=O)OCc2ccc(NC(=O)[C@H](CC(N)=O)NC(=O)[C@H](C)NC(=O)[C@H](C)NC(=O)CCCCCN3C(=O)C=CC3=O)cc2)[C@H](O)[C@H](C)O1 [Compound S5, 4-N—(N—(N—(N-(6-maleimidocaproyl)-L-alanyl)-L-alanyl)-L-asparaginyl)-amino benzyl alcohol-daunorubicin-carbamate]
Cytoxicity reduced (Multiple) [6]: 125 Multiple
Size of tumor (mm^3) Day 10 [7, 13]: 63.67 ± 46.64 mm^3
Size of tumor (mm^3) Day 24 [7, 14]: 46.45 ± 19.43 mm^3
Effect on tumor growth, in words [7]: strong inhibitory effect on tumor growth

CO[C@@]12[C@H](COC(N)=O)C3=C(C(=O)C(C)=C(N)C3=O)N1C[C@@H]1N[C@@H]12 [mitomycin, reference compound]
Size of tumor (mm^3) Day 10 ([8]; Day 10): 118.85 ± 36.47 mm^3
inhibitory rate on tumor Day 10 ([8]; Day 10): 7.5%
Size of tumor (mm^3) Day 24 ([8]; Day 24): 249.54 ± 95.46 mm^3
inhibitory rate on tumor Day 24 ([8]; Day 24): 27.9%
Size of tumor (mm^3) Day 13 ([9]; Day 13): 876.48 ± 78.29 mm^3
inhibitory rate on tumor Day 13 ([9]; Day 13): 3.7%
Size of tumor (mm^3) Day 26 ([9]; Day 26): 1410.28 ± 375.46 mm^3
inhibitory rate on tumor (Day 26) ([9]; Day 26): 10.4%
Maximal scar radius observed by pathological staining (pixel) [10]: 953 ± 249 pixel
F4/80+ cells among CD45+ cells (%) [11]: 14.6 ± 2.4%

COCCOCC(=O)N[C@H](C)C(=O)N[C@H](C)C(=O)N[C@H](CC(N)=O)C(=O)Nc1ccc(COC(=O)OC(C(=O)OC2C[C@@]3(O)C(OC(=O)c4ccccc4)[C@@H]4C5(OC(C)=O)COC5C[C@H](O)[C@@]4(C)C(=O)[C@H](OC(C)=O)C(=C2C)C3(C)C)[C@@H](NC(=O)c2ccccc2)c2ccccc2)cc1 (stereo in doubt) [S1′, 2-(2-methoxyethoxy) acetylamino-L-Ala-L-Ala-L-Asn-p-amino-benzyl-paclitaxel]
inhibitory rate on tumor (Day 26) [1, 15]: 90.7%
inhibitory rate on tumor (Day 26) [2, 15]: 85.6%
inhibitory rate on tumor (Day 26) [3, 15]: 77.9%
inhibitory rate on tumor (Day 26) [4, 15]: 84.3%
inhibitory rate on tumor (Day 26) [5, 15]: 85.7%

COCCOCC(=O)NCCCC[C@H](NC(=O)COCCOC)C(=O)N[C@H](C)C(=O)N[C@H](C)C(=O)N[C@H](CC(N)=O)C(=O)Nc1ccc(COC(=O)OC(C(=O)OC2C[C@@]3(O)[C@@H](OC(=O)c4ccccc4)[C@H]4[C@](C)(C(=O)[C@H](O)C(=C2C)C3(C)C)[C@@H](O)CC2OC[C@]24OC(C)=O)[C@@H](NC(=O)OC(C)(C)C)c2ccccc2)cc1 (stereo partly drawn) [Compound B1]
inhibitory rate on tumor (Day 26) [1, 16]: 78.84%
inhibitory rate on tumor (Day 26) [2, 16]: 74.67%
inhibitory rate on tumor (Day 26) [3, 16]: 72.56%
inhibitory rate on tumor (Day 26) [4, 16]: 81.56%
inhibitory rate on tumor (Day 26) [5, 16]: 86.67%

CCCCCOC(=O)Nc1nc(=O)n([C@@H]2O[C@H](C)[C@@H](OC(=O)OCc3ccc(NC(=O)[C@H](CC(N)=O)NC(=O)[C@H](C)NC(=O)[C@H](C)NC(=O)CCCCCCC(=O)NO)cc3)[C@H]2O)cc1F [Compound S3, 4-N—(N—(N—(N-(8-(N-hydroxylamino)-1,8-octandioic acid-1-monoacyl)-L-alanyl)-L-alanyl)-L-asparaginyl)-amino benzyl alcohol-capecitabine-carbonic acid diester]
Cytoxicity reduced (Multiple) [6]: 78 Multiple
Size of tumor (mm^3) Day 10 [7, 13]: 85.67 ± 36.42 mm^3
Size of tumor (mm^3) Day 24 [7, 14]: 0 mm^3
Effect on tumor growth, in words [7]: strong inhibitory effect on tumor growth

COCCOCC(=O)NCCCC[C@H](NC(=O)COCCOC)C(=O)N[C@H](C)C(=O)N[C@H](C)C(=O)N[C@H](CC(N)=O)C(=O)Nc1ccc(COC(=O)OC(C(=O)OC2C[C@@]3(O)[C@@H](OC(=O)c4ccccc4)[C@H]4[C@](C)(C(=O)[C@H](OC(C)=O)C(=C2C)C3(C)C)[C@@H](O)CC2OC[C@]24OC(C)=O)[C@@H](NC(=O)c2ccccc2)c2ccccc2)cc1 (stereo partly drawn) [Compound A1]
inhibitory rate on tumor (Day 26) [1, 17]: 91.2%
inhibitory rate on tumor (Day 26) [2, 17]: 84.4%
inhibitory rate on tumor (Day 26) [3, 17]: 76.9%
inhibitory rate on tumor (Day 26) [4, 17]: 85.4%
inhibitory rate on tumor (Day 26) [5, 17]: 86.6%
